Data on 10 molecules can be found in article PMC9217908, “Screening of commonly prescribed drugs for effects on the CAT1-mediated transport of L-arginine and arginine derivatives” (Amino Acids, 2022).

What is called inhibition is the change of the read-out against control, counted positive when it falls.

The target in the first experiment is T1, CAT1 (cationic amino acid transporter 1, CAT1/SLC7A1) (Homo sapiens, UniProt P30825).
T1 construct: full-length human transporter stably transfected in HEK cells (HEK-CAT1); net uptake against HEK-VC vector control cells
T1 sequence (P30825 whole entry): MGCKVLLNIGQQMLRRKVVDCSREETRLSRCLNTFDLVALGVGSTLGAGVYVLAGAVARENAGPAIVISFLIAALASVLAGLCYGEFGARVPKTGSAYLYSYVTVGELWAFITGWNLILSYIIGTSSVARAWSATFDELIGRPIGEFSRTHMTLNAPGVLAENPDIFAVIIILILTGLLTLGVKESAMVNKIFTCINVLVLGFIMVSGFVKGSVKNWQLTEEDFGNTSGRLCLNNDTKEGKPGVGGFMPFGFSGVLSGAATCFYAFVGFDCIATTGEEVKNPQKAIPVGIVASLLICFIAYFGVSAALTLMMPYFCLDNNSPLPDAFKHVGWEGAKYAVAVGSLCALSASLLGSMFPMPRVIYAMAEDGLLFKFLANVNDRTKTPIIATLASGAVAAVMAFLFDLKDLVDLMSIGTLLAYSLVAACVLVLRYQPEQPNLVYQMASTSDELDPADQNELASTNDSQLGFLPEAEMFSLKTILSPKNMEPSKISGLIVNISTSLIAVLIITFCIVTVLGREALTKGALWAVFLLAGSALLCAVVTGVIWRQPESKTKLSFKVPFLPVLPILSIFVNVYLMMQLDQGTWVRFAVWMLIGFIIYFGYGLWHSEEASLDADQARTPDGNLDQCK
As to the kind of experiment: cell-based. Set-up: species or system HEK-CAT1 (HEK293 stably transfected); Inhibition of net CAT1-mediated [3H]-L-arginine (100 uM) uptake, 5 min, scintillation counting, vector control subtracted. As to conditions: HEK293; L-arginine 100 uM as substrate; read-out: % Inhibition of L-arginine uptake at 20 µM. The essentials:
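HEK-CAT1 and vector-control HEK-VC cells took up [3H]-L-arginine (100 μM) for 5 min, with or without drug at 20 or 200 µM; [3H]-L-homoarginine or [3H]-ADMA uptake ran 2.5 min. Net uptake is CAT1 minus VC cells, and inhibition (%) = 100 − (V/V0 × 100). Negative values mean stimulated uptake.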
Regarding `COCCc1ccc(OCC(O)CNC(C)C)cc1` (stereo not drawn) [Metoprolol], the inhibition at 20 µM was 8.1 ± 6.7%.

For the molecule `Cc1ncc([N+](=O)[O-])n1CCO` [Metronidazole], the inhibition at 20 µM is 7.7 ± 1.9%.

With `CC#C[C@]1(O)CC[C@H]2[C@@H]3CCC4=CC(=O)CCC4=C3[C@@H](c3ccc(N(C)C)cc3)C[C@@]21C` [Mifepristone], the inhibition at 20 µM was 24.6 ± 0.6%.

For `CN1CCOC(c2ccccc2)c2ccccc2C1` (stereo not drawn) [Nefopam], the inhibition at 20 µM was -17.2 ± 10.5%.

`CCOC(=O)C1=C(C)NC(C)=C(C(=O)OC)C1c1cccc([N+](=O)[O-])c1` (stereo not drawn) [Nitrendipine]: the inhibition at 20 µM was -1.5 ± 7.1%.

For the molecule `C#C[C@]1(O)CC[C@H]2[C@@H]3CCC4=CC(=O)CC[C@@H]4[C@H]3CC[C@@]21C` [Norethindrone], the inhibition at 20 µM came out at 26.9 ± 5%.

Turning to `CCCc1nc(C(C)(C)O)c(C(=O)O)n1Cc1ccc(-c2ccccc2-c2nnn[nH]2)cc1` [Olmesartan], the inhibition at 20 µM came to 2.8 ± 2.3%.

Turning to `Cc1nccn1CC1CCc2c(c3ccccc3n2C)C1=O` (stereo not drawn) [Ondansetron], the inhibition at 20 µM was 8.8 ± 7.9%.

On to `OCCN1CCN(CCCN2c3ccccc3C=Cc3ccccc32)CC1` [Opipramol], for which the inhibition at 20 µM was found to be 22.3 ± 1.8%.

Consider `COc1ccnc(C[S+]([O-])c2nc3cc(OC(F)F)ccc3[nH]2)c1OC` (stereo not drawn) [Pantoprazole], for which the inhibition at 20 µM was determined as 16.7 ± 2.1%.

The experiment is the same for the next values; noted with them: HEK293; L-arginine 100 uM as substrate; read-out: % Inhibition of L-arginine uptake at 200 µM.
For `COCCc1ccc(OCC(O)CNC(C)C)cc1` (stereo not drawn) [Metoprolol], the inhibition at 200 µM turned out to be 1.3 ± 3.8%.

Take `Cc1ncc([N+](=O)[O-])n1CCO` [Metronidazole]: the inhibition at 200 µM came to 2.6 ± 3.7%.

Consider `CC#C[C@]1(O)CC[C@H]2[C@@H]3CCC4=CC(=O)CCC4=C3[C@@H](c3ccc(N(C)C)cc3)C[C@@]21C` [Mifepristone], for which the inhibition at 200 µM was -19.9 ± 4.4%.

In the case of `CN1CCOC(c2ccccc2)c2ccccc2C1` (stereo not drawn) [Nefopam], the inhibition at 200 µM was -13.9 ± 5.1%.

Turning to `CCOC(=O)C1=C(C)NC(C)=C(C(=O)OC)C1c1cccc([N+](=O)[O-])c1` (stereo not drawn) [Nitrendipine], the inhibition at 200 µM came to 26.1 ± 8.1%.

`C#C[C@]1(O)CC[C@H]2[C@@H]3CCC4=CC(=O)CC[C@@H]4[C@H]3CC[C@@]21C` [Norethindrone]: the inhibition at 200 µM was -19.7 ± 3.3%.

For `CCCc1nc(C(C)(C)O)c(C(=O)O)n1Cc1ccc(-c2ccccc2-c2nnn[nH]2)cc1` [Olmesartan], the inhibition at 200 µM is -32.8 ± 1.4%.

Regarding `Cc1nccn1CC1CCc2c(c3ccccc3n2C)C1=O` (stereo not drawn) [Ondansetron], the inhibition at 200 µM was -5.7 ± 4.1%.

`OCCN1CCN(CCCN2c3ccccc3C=Cc3ccccc32)CC1` [Opipramol]: the inhibition at 200 µM turned out to be 29.2 ± 2.7%.

For `COc1ccnc(C[S+]([O-])c2nc3cc(OC(F)F)ccc3[nH]2)c1OC` (stereo not drawn) [Pantoprazole], the inhibition at 200 µM worked out at 10.5 ± 0.9%.

In the next experiment the target is T1, CAT1 (cationic amino acid transporter 1, CAT1/SLC7A1). Briefly: cell-based. Set-up: species or system HEK-CAT1 (HEK293 stably transfected); Inhibition of net CAT1-mediated [3H]-L-homoarginine (1 uM) uptake, 2.5 min, scintillation counting, vector control subtracted. As to conditions: HEK293; L-homoarginine 1 uM as substrate; read-out: % Inhibition of L-homoarginine uptake at 20 µM. In short, it runs like this:
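HEK-CAT1 cells with HEK-VC vector controls; [3H]-L-homoarginine (1 μM) uptake over 2.5 min with or without test compound at 20 µM or 200 µM. Net CAT1 uptake (CAT1 minus VC) gives inhibition (%) = 100 – (V/V0 × 100). Negative values mean stimulated uptake; n = 6–9 from at least two independent experiments.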
Consider `COCCc1ccc(OCC(O)CNC(C)C)cc1` (stereo not drawn) [Metoprolol], for which the inhibition at 20 µM is -21.4 ± 3.7%.

As to `Cc1ncc([N+](=O)[O-])n1CCO` [Metronidazole], the inhibition at 20 µM is -4.7 ± 2%.

In the case of `CC#C[C@]1(O)CC[C@H]2[C@@H]3CCC4=CC(=O)CCC4=C3[C@@H](c3ccc(N(C)C)cc3)C[C@@]21C` [Mifepristone], the inhibition at 20 µM worked out at 8.5 ± 11.1%.

With `CN1CCOC(c2ccccc2)c2ccccc2C1` (stereo not drawn) [Nefopam], the inhibition at 20 µM was -8.3 ± 1.6%.

In the case of `CCOC(=O)C1=C(C)NC(C)=C(C(=O)OC)C1c1cccc([N+](=O)[O-])c1` (stereo not drawn) [Nitrendipine], the inhibition at 20 µM was determined as 3.4 ± 8.7%.

With `C#C[C@]1(O)CC[C@H]2[C@@H]3CCC4=CC(=O)CC[C@@H]4[C@H]3CC[C@@]21C` [Norethindrone], the inhibition at 20 µM was 23.5 ± 4%.

Turning to `CCCc1nc(C(C)(C)O)c(C(=O)O)n1Cc1ccc(-c2ccccc2-c2nnn[nH]2)cc1` [Olmesartan], the inhibition at 20 µM is 3 ± 2.3%.

Regarding `Cc1nccn1CC1CCc2c(c3ccccc3n2C)C1=O` (stereo not drawn) [Ondansetron], the inhibition at 20 µM was -0.5 ± 5.9%.

For `OCCN1CCN(CCCN2c3ccccc3C=Cc3ccccc32)CC1` [Opipramol], the inhibition at 20 µM was -16.8 ± 3.4%.

For the molecule `COc1ccnc(C[S+]([O-])c2nc3cc(OC(F)F)ccc3[nH]2)c1OC` (stereo not drawn) [Pantoprazole], the inhibition at 20 µM amounted to 15.2 ± 1.8%.

The same experiment, now with this note: HEK293; L-homoarginine 1 uM as substrate; read-out: % Inhibition of L-homoarginine uptake at 200 µM.
With `COCCc1ccc(OCC(O)CNC(C)C)cc1` (stereo not drawn) [Metoprolol], the inhibition at 200 µM was 0.3 ± 2.5%.

As for `Cc1ncc([N+](=O)[O-])n1CCO` [Metronidazole], the inhibition at 200 µM turned out to be 0.8 ± 2.2%.

With `CC#C[C@]1(O)CC[C@H]2[C@@H]3CCC4=CC(=O)CCC4=C3[C@@H](c3ccc(N(C)C)cc3)C[C@@]21C` [Mifepristone], the inhibition at 200 µM is -15 ± 1.6%.

In the case of `CN1CCOC(c2ccccc2)c2ccccc2C1` (stereo not drawn) [Nefopam], the inhibition at 200 µM was -11.6 ± 3.2%.

With `CCOC(=O)C1=C(C)NC(C)=C(C(=O)OC)C1c1cccc([N+](=O)[O-])c1` (stereo not drawn) [Nitrendipine], the inhibition at 200 µM stood at 15.2 ± 4.5%.

Turning to `C#C[C@]1(O)CC[C@H]2[C@@H]3CCC4=CC(=O)CC[C@@H]4[C@H]3CC[C@@]21C` [Norethindrone], the inhibition at 200 µM is -12.8 ± 9.6%.

Consider `CCCc1nc(C(C)(C)O)c(C(=O)O)n1Cc1ccc(-c2ccccc2-c2nnn[nH]2)cc1` [Olmesartan], for which the inhibition at 200 µM was -13.7 ± 5.1%.

Regarding `Cc1nccn1CC1CCc2c(c3ccccc3n2C)C1=O` (stereo not drawn) [Ondansetron], the inhibition at 200 µM was -8.3 ± 1.6%.

Turning to `OCCN1CCN(CCCN2c3ccccc3C=Cc3ccccc32)CC1` [Opipramol], the inhibition at 200 µM was found to be 29.5 ± 2.7%.

On to `COc1ccnc(C[S+]([O-])c2nc3cc(OC(F)F)ccc3[nH]2)c1OC` (stereo not drawn) [Pantoprazole], for which the inhibition at 200 µM was 12.5 ± 0.3%.

The target is the same in a further experiment. As to the kind of experiment: cell-based. Set-up: species or system HEK-CAT1 (HEK293 stably transfected); Inhibition of net CAT1-mediated [3H]-ADMA (1 uM) uptake, 2.5 min, scintillation counting, vector control subtracted. As to conditions: HEK293; ADMA 1 uM as substrate; read-out: % Inhibition of ADMA uptake at 20 µM. In short, it runs like this:
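HEK cells expressing CAT1 and vector-control cells took up [^3H]-L-arginine for 5 min, or [^3H]-L-homoarginine or [^3H]-ADMA (1 μM) for 2.5 min, with or without drug at 20 or 200 µM. Net CAT1 uptake was CAT1 cells minus control cells, and inhibition (%) = 100 − V/V0×100. Negative values mean stimulation; n = 6–9.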
Consider `COCCc1ccc(OCC(O)CNC(C)C)cc1` (stereo not drawn) [Metoprolol], for which the inhibition at 20 µM is -15.1 ± 7.1%.

For `Cc1ncc([N+](=O)[O-])n1CCO` [Metronidazole], the inhibition at 20 µM was -3.1 ± 2%.

Regarding `CC#C[C@]1(O)CC[C@H]2[C@@H]3CCC4=CC(=O)CCC4=C3[C@@H](c3ccc(N(C)C)cc3)C[C@@]21C` [Mifepristone], the inhibition at 20 µM stood at 8.1 ± 11.4%.

For the molecule `CN1CCOC(c2ccccc2)c2ccccc2C1` (stereo not drawn) [Nefopam], the inhibition at 20 µM is -3.2 ± 0.4%.

Regarding `CCOC(=O)C1=C(C)NC(C)=C(C(=O)OC)C1c1cccc([N+](=O)[O-])c1` (stereo not drawn) [Nitrendipine], the inhibition at 20 µM was 3.2 ± 9.5%.

As for `C#C[C@]1(O)CC[C@H]2[C@@H]3CCC4=CC(=O)CC[C@@H]4[C@H]3CC[C@@]21C` [Norethindrone], the inhibition at 20 µM was -3.8 ± 1.6%.

In the case of `CCCc1nc(C(C)(C)O)c(C(=O)O)n1Cc1ccc(-c2ccccc2-c2nnn[nH]2)cc1` [Olmesartan], the inhibition at 20 µM was -13.2 ± 1.9%.

Consider `Cc1nccn1CC1CCc2c(c3ccccc3n2C)C1=O` (stereo not drawn) [Ondansetron], for which the inhibition at 20 µM was -0.4 ± 5.9%.

Regarding `OCCN1CCN(CCCN2c3ccccc3C=Cc3ccccc32)CC1` [Opipramol], the inhibition at 20 µM was -13.4 ± 3.7%.

Regarding `COc1ccnc(C[S+]([O-])c2nc3cc(OC(F)F)ccc3[nH]2)c1OC` (stereo not drawn) [Pantoprazole], the inhibition at 20 µM is -4.5 ± 1.7%.

Staying with this experiment, now noted: HEK293; ADMA 1 uM as substrate; read-out: % Inhibition of ADMA uptake at 200 µM.
In the case of `COCCc1ccc(OCC(O)CNC(C)C)cc1` (stereo not drawn) [Metoprolol], the inhibition at 200 µM is 19.8 ± 4.1%.

For `Cc1ncc([N+](=O)[O-])n1CCO` [Metronidazole], the inhibition at 200 µM is -16.6 ± 0.4%.

Regarding `CC#C[C@]1(O)CC[C@H]2[C@@H]3CCC4=CC(=O)CCC4=C3[C@@H](c3ccc(N(C)C)cc3)C[C@@]21C` [Mifepristone], the inhibition at 200 µM is 5.6 ± 3.7%.

Consider `CN1CCOC(c2ccccc2)c2ccccc2C1` (stereo not drawn) [Nefopam], for which the inhibition at 200 µM was determined as 32.6 ± 3.7%.

Regarding `CCOC(=O)C1=C(C)NC(C)=C(C(=O)OC)C1c1cccc([N+](=O)[O-])c1` (stereo not drawn) [Nitrendipine], the inhibition at 200 µM is 30.4 ± 0.8%.

With `C#C[C@]1(O)CC[C@H]2[C@@H]3CCC4=CC(=O)CC[C@@H]4[C@H]3CC[C@@]21C` [Norethindrone], the inhibition at 200 µM was -3.1 ± 0.5%.

With `CCCc1nc(C(C)(C)O)c(C(=O)O)n1Cc1ccc(-c2ccccc2-c2nnn[nH]2)cc1` [Olmesartan], the inhibition at 200 µM is -7.7 ± 3.5%.

`Cc1nccn1CC1CCc2c(c3ccccc3n2C)C1=O` (stereo not drawn) [Ondansetron]: the inhibition at 200 µM is 10.1 ± 2.3%.

With `OCCN1CCN(CCCN2c3ccccc3C=Cc3ccccc32)CC1` [Opipramol], the inhibition at 200 µM was -1 ± 4.5%.

With `COc1ccnc(C[S+]([O-])c2nc3cc(OC(F)F)ccc3[nH]2)c1OC` (stereo not drawn) [Pantoprazole], the inhibition at 200 µM was -9.9 ± 3.1%.
